What was measured:
[1] = test system: mouse dorsal root ganglion (DRG) neurons; details: purified compounds, 20 μg / mL, K+-stimulated
[2] = test system: other serotonin receptors; assay: PDSP primary binding assay at 10 μM, other serotonin receptors; design: species or system human; details: from Ki at 5-HT2B vs no significant binding at 10 μM
[3] = micromolar range; cited from earlier work

Compound: OC[C@@H]1CSC(c2ccccc2O)=N1 [Compound 1, aerugine]
- effect on Ca2+ influx in DRG cells [1]: observably increased Ca^2+ influx

Compound: C[C@@H]1SC(c2ccccc2O)=N[C@@H]1CO [Compound 6, Pulicatin A]
- effect on Ca2+ influx in DRG cells [1]: decreased Ca^2+ influx
- selectivity for 5-HT2B over related receptors [2]: at least 20 fold

Compound: NC(=O)C1CSC(c2ccccc2O)=N1 (centres unmarked) [Compound 3, pulicatin G]
- effect on Ca2+ influx in DRG cells [1]: observably increased Ca^2+ influx

Compound: O=C(O)c1csc(-c2ccccc2O)n1 [Aeruginoic acid]
- antihypotensive activity [3]: exhibited antihypotensive activity

— PMC2993768 (Journal of natural products, 2010)
